Reference: patent publication US20250312356A1, “TREATMENT OF DYSMENORRHEA” (priority 2024, published 2025)
Read-outs that look alike come from different tables or passages of the source.

Columns and labels:
[1] = tested on: nasal chemosensory mucosa; experiment: electrogram recorded from the surface of the nasal chemosensory mucosa; assay type: in vivo, human; conditions: intranasal
Description: (§1) The half effective dose of this effect was 0.087 μg.

[2] = tested on: pregnant rabbits; experiment: reproductive toxicity studies; assay type: in vivo; conditions: intravenous doses up to 2.5 mg/kg/day during organogenesis
[3] = tested on: estrogen receptors; experiment: in vitro receptor binding study
[4] = tested on: women of reproductive age; experiment: clinical study of changes in physiological parameters; assay type: in vivo, human; conditions: 0.5 μg nasal spray vs vehicle, 14 women
[5] = in vivo
[6] = tested on: isolated human nasal chemosensory neurons; experiment: electrophysiological studies in isolated nasal chemosensory neurons; assay type: cell-based
[7] = tested on: estrogen, androgen, progestin and glucocorticoid receptors; experiment: in vitro agonist or antagonist activity on steroid hormone receptors; assay type: biochemical
[8] = tested on: women diagnosed with PMDD
[9] = tested on: GABAA receptors, opioid receptors, or dopamine receptors; experiment: in vitro receptor binding study
[10] = tested on: women of reproductive age; experiment: clinical study of core body temperature and tone of the sympathoadrenergic system; assay type: in vivo, human; conditions: 1.6 μg nasal spray
Description: It also changed the tone of the sympathoadrenergic system (as assessed by measuring physiologic sinus arrhythmia) within 5 minutes of administration, and the effect persisted for 15 to 20 minutes.

[11] = tested on: bone marrow; experiment: in vivo bone marrow micronucleus test
[12] = tested on: human volunteers of both sexes; experiment: reflex activity and physiologic parameters after intranasal administration in volunteers; assay type: in vivo; conditions: 1.6 μg intranasal
Description: as §1
(§2) 16α,17α-Epoxyestr-4-en-10β-ol-3-one decreased parasympathetic system tone resulting in increased sympathetic activity and stimulation of β2 adrenergic receptors in the bronchiole smooth muscle that induced bronchodilation; • (b) increased skin conductance amplitude is the result of increased skin secretions, which are produced by preponderance of the sympathetic nervous system tone (or decreased parasympathetic tone); • (c) decreased body temperature is explained by increased activity of the posterior (adrenergic) hypothalamus and decreased parasympathetic tone (anterior hypothalamus).

[13] = tested on: females with DSM-IV-defined PMDD; experiment: Phase 2a study, daily symptom report pain cluster, cramps; assay type: in vivo, human
From the text: During a 3- to 5-week screening period, patients who presented to the clinic for bothersome PMDD symptoms (defined as “affected functioning”) were recruited. The Premenstrual Tension Syndrome scale was used for screening. After study eligibility criteria and PMDD symptom presence were confirmed at Visit 1, patients received single-blind placebo; those with no acute improvement were eligible for randomization study. Randomized patients presented for Visit 2 when PMDD symptoms were bothersome during the second cycle after entry. PH80 (0.9 μg) or placebo was administered intranasally; PMDD symptoms were evaluated 30 and 60 minutes later. Patients were then supplied with their assigned double-blind treatment for intranasal self-administration up to 4 times a day (PH80 0.9 μg/dose or matching placebo) for up to 6 consecutive days before the estimated menses onset in that cycle. On the first day of menses in the second cycle, a follow-up visit (Visit 3) occurred. 82 females were screened; 61 met eligibility criteria and were randomized to receive PH80 (n=33) or placebo (n=28). […] A total of 49 patients provided at least 1 post-treatment assessment and were included in the pain efficacy analysis.
Pain efficacy analysis for cramping was rated daily by the patient on a 5-point scale ranging from 0 (no symptoms at all) up to 4 (very severe). The overall pain cluster score and individual symptom ratings were compared post-hoc using two-sided T-tests, without adjustments for multiplicity or within-patient variance; means for each group were plotted for each reported day, and no imputation was made for missing data. Results are summarized in Table 2 and depicted in FIG. 3.

[14] = tested on: neurotransmitter receptors, re-uptake sites, or steroid receptors; experiment: in vitro receptor binding study
[15] = tested on: menopausal women; experiment: hot flashes after intranasal administration; assay type: in vivo, human
From the text: as §2

[16] = Ames reverse mutation assay
[17] = tested on: rats, mice, rabbits and dogs; experiment: acute and multidose (28 day) toxicity studies; assay type: in vivo

## C[C@]12CCC3C(CCC4=CC(=O)CC[C@]43O)C1C[C@H]1O[C@H]12 (stereo partly drawn) [16α,17α-epoxyestr-4-en-10β-ol-3-one]
[1]
  half effective dose of electrogram activation: 0.087 µg
[1]; microgram quantities
  activation of the electrogram: concentration dependent activation
[2]
  effects on maternal or litter parameters: no adverse effects on maternal or litter parameters
[3]
  binding to estrogen receptors: does not bind
[4]
  cardiac frequency: not statistically significant increase
  core body temperature: statistically significant decreases
  galvanic skin reflex: statistically significant decreases
  respiratory frequency: statistically significant decreases
  skeletal muscle tone: statistically significant decreases
[5]
  systemic exposure: lack of systemic exposure
[6]; concentration-dependent amplitude
  concentration giving maximal response (amplitude): 10^−7 to 10^−6 M
[6]; isolated human nasal chemosensory neurons
  inward currents: induced inward currents
[6]; nasal septal chemosensory mucosa
  electrotonic depolarization of the nasal septal chemosensory mucosa: electrotonic depolarization of the nasal septal chemosensory mucosa
[7]
  agonist or antagonist activity on estrogen, androgen, progestin and glucocorticoid receptors: no agonist or antagonist activity
[8]; 0.9 μg intranasal aerosol
  cortical behavioral symptoms (headache, tension): significant improvements
  hypothalamic behavioral symptoms (fatigue, anger, craving for foods): significant improvements
  limbic system behavioral symptoms (mood swings, depression, lack of interest): significant improvements
[8]; Day 1, 29 women, scale 0 to 4
  mean cramping score: 1.19
[8]; Day 1, scale 0 to 4
  mean headache score: 1.14
[8]; Day 4, p<0.05, one-tail test
  difference in mean cramping scores vs placebo: significant
[8]; Day 5, p<0.05, one-tail test
  difference in mean headache scores vs placebo: significant
[8]; Day 6
  share of group reporting cramping symptoms: 17%
[8]; Day 6, scale 0 to 4
  mean cramping score: 0.24
  mean headache score: 0.28
[8]; single dose intranasal
  persistence of improvements: approximately 5 hours
  time to appearance of improvements: ≤ 30 min
[8]; up to 4 times daily
  serious adverse events: No serious adverse events were reported
  side effects: minimal and similar to administration of placebo
[9]
  binding to GABAA receptors, opioid receptors, or dopamine receptors: does not bind
[10]
  decrease in core body temperature: 1±0.23 °C
  latency of decrease in core body temperature: 0.5 to 4 min
  persistence of decrease in core body temperature: 9 ± 2.5 min
  persistence of effect on tone of the sympathoadrenergic system: 15 to 20 min
  time to change of tone of the sympathoadrenergic system (physiologic sinus arrhythmia): ≤ 5 minutes
[11]
  mutagenic or clastogenic potential: no evidence of mutagenic or clastogenic potential
[12]
  body core temperature (external ear canal): decreased body core temperature
  cardiac rate: no significant change
  depth of the inspiratory cycle of respiration: significantly increased amplitude
  latency of modulation of reflex activity after electrogram: 5 to 10 s
  respiration rate: decreased respiration rate within physiologic range
  skeletal muscle tone (electromyogram, chin muscles): decreased skeletal muscle tone (relaxation)
  skin conductance (electrodermal activity): increased amplitude
[13]; Day 1, 0.9 μg/dose up to 4 times a day, 5-point scale 0 to 4
  cramps score, mean: 1.26
[13]; Day 2
  cramps score, mean: 1.00
[13]; Day 3
  cramps score, mean: 0.59
[13]; Day 4
  cramps score, mean: 0.52
[13]; Day 5
  cramps score, mean: 0.42
[13]; Day 6, n=19, P=0.01 vs placebo
  cramps score, mean: 0.21
[14]
  binding to neurotransmitter receptors, re-uptake sites, or steroid receptors: no binding
[15]
  hot flashes: decreased number, severity and bother of hot flashes
[16]
  mutagenic or clastogenic potential: no evidence of mutagenic or clastogenic potential
[17]; single and repeated intranasal and intravenous doses
  deaths, adverse clinical signs, effects on laboratory or pathology parameters: no deaths or adverse clinical signs or effects on laboratory or pathology parameters observed
[17]; single and repeated intranasal doses (up to 100 μg/rat, 400 μg/rabbit, 600 μg/dog) and intravenous doses up to 2.5 mg/kg
  tolerability: well tolerated in all species tested
